Assay [1] has as its target T1, hSLC13A5 (Homo sapiens, UniProt Q86YT5). Kind of assay: HepG2/14C-citrate uptake assay. It is filed as cell-based. Further details: HepG2 cells endogenously express hSLC13A5 transporter which is responsible for the uptake of citrate into these cells; endogenous in cells; host or cells: HepG2. The following applies: HepG2 cells endogenously expressing hSLC13A5; Cytostar-T; 14C-citrate ~1.8 μM; incubation over night. The text has this: (4) HepG2/^14C-Citrate Uptake Assay
HepG2 cells endogenously expressing hSLC13A5 were obtained from the Wistar Institute (Knowles et al., Science 1980, 209, 497-499).
HepG2 cells endogenously express hSLC13A5 transporter which is responsible for the uptake of citrate into these cells. […] The uptake of ^14C-citrate into HepG2 cells is monitored using the Cytostar-T assay. This assay format is based on the imported radioactive citrate brought into proximity with the scintillant contained within the base of the plate by virtue of the biological processes within the cells. The radioactive decay is converted to a light signal based on the integration of the scintillation matrix into the assay plate.
(§1) Method: ^14C-Citrate Uptake Assay
Starting from 10 mM stock solutions in 100% DMSO, compounds are diluted in pure DMSO using the appropriate dilution steps. Prior to the uptake assay, 400 μL assay medium+4.8 μL compound solution (or pure DMSO for non-inhibited control wells) are mixed (final DMSO concentration in the assay: 1% (v/v)) ^14C-citrate working solution (volumes required per 96-well):
The HepG2 cells are cultivated in cell culture medium (EMEM+10% fetal calf serum+1×NEAA and 10 mM L-Glutamin) For the assay, the medium of the confluent cultures is discarded and the cells are washed with DPBS w/o Mg^2+ w/o Ca^2+. The cells are detached by the addition of 1.0 mL 2× Trypsin in DPBS w/o Mg^2+ w/o Ca^2+ with 7.5 mM EDTA per 75 cm^2 culture flask for up to 3 minutes at 37° C. and resuspended in 10 mL cell culture medium. Following cell counting, 100,000 cells/well are seeded in a volume of 200 μL into Cytostar-T Scintillating 96-well microplates. After overnight incubation in a humid cell culture incubator at 37° C., 5% CO2, the cell culture medium is carefully aspirated and the cells are incubated with 200 μL prewarmed (37° C.) assay medium (50% DMEM+50% Ham's F-12+15 mM HEPES (pH 7.4) (medium contains 15.5 m M D(+)-glucose) per well for at least 1 h prior to the experiment.
Immediately prior to uptake assay, the assay medium is carefully removed and 100 μL test compound dilution is added to each well (n=3).
Following a 20 min incubation at 37° C. in the cell culture incubator, 20 μL of ^14C-citrate working solution is added to each well (final volume per well: 120 μL; final ^14C-citrate concentration ˜1.8 μM/well)).
After incubation over night at 37° C. in the cell culture incubator, the plates are sealed on the top using a transparent plastic foil and on the bottom using a white plastic foil. Following the sealing, the plate is placed into the TopCount NXT HTS and the signal is recorded.
(§2) The IC50 values of the compounds are calculated in IDBS XLfit by sigmoidal dose-response (variable slope).

Assay [2] concerns the target T1, hSLC13A5. Kind of assay: Recombinant hSLC13A5/14C-citrate uptake assay. The class given is cell-based. To be noted: HEK293 Flp-In cells over-expressing hSLC13A5; WGA-PVT SPA beads; 14C-citrate approx. 2 μM; 4 h.
Text: (5) Recombinant hSLC13A5/^14C-Citrate Uptake Assay
The human embryonic kidney 293 (HEK 293)-Flp-In cells (293Flp-In-hSLC13A5) over-expressing hSLC13A5 transporter were cloned: The originating plasmid pcDNA3.1-hSLC13A5 containing hSLC13A5 was synthesized at GeneArt. The cDNA for hSLC13A5 was taken from this plasmid by means of PCR amplification using primers with added HindIII (N-terminal) and XhoI (C-terminal) restriction sites and sub-cloned in frame into pcDNA5/FRT from Invitrogen using the respective restriction enzymes. HEK293 Flp-In cells from Invitrogen were stably co-transfected using the pcDNA/FRT-hSLC13A5 plasmid as well as the pOG44 plasmid.
HEK 293-Flp-In cells are used that stably over-express hSLC13A5 transporter which is responsible for the uptake of citrate into these cells.
The uptake of ^14C-citrate into the 293Flp-In-hSLC13A5 cells is monitored using the WGA-PVT SPA (wheat germ agglutinin-polyvinyltoluene scintillation proximity assay) beads that bind to the 293Flp-In cells due to their WGA-PVT surface. This assay format is based on the imported radioactive citrate brought into proximity with the SPA beads by virtue of the biological processes within the cells. The radioactive decay is converted into a light signal that can be measured using e.g. the TopCount plate reader.
as §1
Test Compound Dilutions (2Fold-Concentrated):
Starting from 10 mM stock solutions in 100% DMSO, compounds are diluted in pure DMSO using the appropriate dilution steps.
Prior to the uptake assay, 200 μL assay medium (lx HBSS (with Ca^2+ and Mg^2+, w/o Phenolred), contains 5.56 mM D(+)-Glucose)+19.44 mM D(+)-Glucose (final concentration of D(+)-Glucose is 25 mM))+4.8 μL compound solution (or pure DMSO for non-inhibited control wells) are mixed (final DMSO concentration in the assay: 1% (v/v)).
After preparing the 2fold-concentrated test compound dilutions, 50 μL are pipetted to each well of white OptiPlates-96 and incubated at 37° C. in an incubator.
^14C-Citrate Working Solution (Volumes Required Per 96-Well):
The 293Flp-In-hSLC13A5 cells are cultivated in cell culture medium (DMEM+10% fetal calf serum+100 μg/mL Hygromycin B). The medium of the confluent cultures is discarded and the cells are washed with DPBS (w/o Mg^2+ w/o Ca^2+). The cells are detached by the addition of 2.0 mL Accumax per 75 cm^2 culture flask for up to 3 minutes at 37° C. and resuspended in 10 mL assay medium. After cell counting, 50,000 cells/well are administered in a volume of 50 μL into the white OptiPlates-96 containing the respective test compound concentrations. Following a 20 min incubation at 37° C. in the cell culture incubator, 20 μL of ^14C-citrate working solution is added to each well (final volume per well: 120 μL; final ^14C-citrate concentration: approx. 2 μM/well).
After incubation for 4 h at 37° C. in a humid cell culture incubator and the addition of 30 μL of WGA-PVT SPA beads to each well (0.25 mg/well), the plates are sealed on the top using a transparent plastic foil. Incubate the plates for 1 h by room temperature and gentle shaking.
After incubation, the plate is placed into the TopCount NXT HTS and the signal is recorded.
The performance of the test compounds is calculated as follows:
Wells containing cells incubated with 1% DMSO only deliver values for the non-inhibited ^14C-citrate uptake into 293Flp-In-hSLC13A5 cells (100% CTL). Wells containing cells which have received 30 mM non-labelled potassium citrate solution in addition to the ^14C-citrate working solution deliver values for the background (0% CTL).
as §2

The values that follow come from US10793522B2, “Sulfonamides as inhibitors of the uptake of extracellular citrate” (Boehringer Ingelheim International GmbH, priority 2016, dated 2020).

T1 sequence (Q86YT5 whole entry): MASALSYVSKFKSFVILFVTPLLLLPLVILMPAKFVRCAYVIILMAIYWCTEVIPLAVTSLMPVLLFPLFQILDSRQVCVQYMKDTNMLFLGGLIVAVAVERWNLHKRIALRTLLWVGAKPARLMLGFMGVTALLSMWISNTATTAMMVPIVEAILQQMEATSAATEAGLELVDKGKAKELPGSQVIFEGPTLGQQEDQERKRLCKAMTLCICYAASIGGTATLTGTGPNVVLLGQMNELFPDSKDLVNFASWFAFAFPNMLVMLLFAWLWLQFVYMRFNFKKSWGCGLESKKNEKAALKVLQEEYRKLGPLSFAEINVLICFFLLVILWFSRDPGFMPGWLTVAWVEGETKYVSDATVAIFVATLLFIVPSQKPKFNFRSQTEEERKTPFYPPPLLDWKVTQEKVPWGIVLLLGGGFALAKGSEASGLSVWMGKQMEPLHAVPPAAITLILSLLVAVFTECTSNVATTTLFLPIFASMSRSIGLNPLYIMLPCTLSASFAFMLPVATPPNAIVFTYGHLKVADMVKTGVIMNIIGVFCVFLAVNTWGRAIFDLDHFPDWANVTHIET

Consider `O=C(NCc1ccccc1F)C1CCN(S(=O)(=O)c2cc(Cl)cc(Cl)c2)CC1` [(I-2)], for which the figures for the IC50 at hSLC13A5 [1] and on hSLC13A5 [2] were 35 nM and 87 nM, respectively.

With `O=C(NCc1ccc(Cl)cc1)C1CCN(S(=O)(=O)c2cc(Cl)cc(Cl)c2)CC1` [(I-5)], the half-maximal inhibitory concentration (IC50) against hSLC13A5 [1] worked out at 22 nM; at hSLC13A5 [2], 56 nM.

As to `O=C(NCc1ccc(F)cc1)C1CCN(S(=O)(=O)c2cc(Cl)cc(Cl)c2)CC1` [(I-10)], the IC50 stood at 24 nM on hSLC13A5 [1] and 56 nM at hSLC13A5 [2].

With `O=C(NCc1ccccn1)C1CCN(S(=O)(=O)c2cc(Cl)cc(Cl)c2)CC1` [(I-11)], the IC50 came out at 455 nM at hSLC13A5 [1] and 687 nM at hSLC13A5 [2].

In the case of `Cc1ccc(CNC(=O)C2CCN(S(=O)(=O)c3cc(Cl)cc(Cl)c3)CC2)nc1` [(I-15)], the IC50 at hSLC13A5 [1] turned out to be 152 nM; on hSLC13A5 [2], 193 nM.

On to `O=C(NCc1ccc(F)cn1)C1CCN(S(=O)(=O)c2cc(Cl)cc(Cl)c2)CC1` [(I-20)], for which the IC50 against hSLC13A5 [1] was found to be 233 nM; at hSLC13A5 [2], 392 nM.

`Cc1cnc(CNC(=O)C2CCN(S(=O)(=O)c3cc(Cl)cc(Cl)c3)CC2)s1` [(I-27)]: the IC50 against hSLC13A5 [1] is 113 nM; on hSLC13A5 [2], 341 nM.

`CCOc1cc(Cl)cc(S(=O)(=O)N2CCC(C(=O)NCc3nccs3)CC2)c1` [(I-49)]: the IC50 against hSLC13A5 [1] was 100 nM; at hSLC13A5 [2] it was 154 nM.

On to `Cc1cc(Br)cc(S(=O)(=O)N2CCC(C(=O)NCc3ccccn3)CC2)c1` [(I-61)], for which the IC50 came to 149 nM against hSLC13A5 [1] and 437 nM on hSLC13A5 [2].

Consider `N#Cc1ccc(CNC(=O)C2CCN(S(=O)(=O)c3cc(Cl)cc(Cl)c3)CC2)cc1` [Example (I-1)], for which the figures for the IC50 at hSLC13A5 [1] and at hSLC13A5 [2] were 74 nM and 79 nM, respectively.
